Reference: ChEMBL document CHEMBL5247609, “Novel nitric oxide-releasing derivatives of pyranocarbazole as antitumor agents: Design, synthesis, biological evaluation, and nitric oxide release studies” (Eur J Med Chem, 2022)
Calls of active or inactive are those of the source. The calls are words filed in the database; no cut-off is given here.

Columns and labels:
[1] = tested on: MX1; test: Induction of cell cycle arrest in human MX1 cells assessed as increase in CDK6 expression at 0.5 to 2 uM by Western blotting analysis; format: functional, cell-based; settings: dose 0.5-2 µM, time 24.0 hrs
[2] = tested on: MX1; test: Induction of apoptosis in human MX1 cells assessed as viable cells measured at 0.5 uM after 48 hrs by FITC-Annexin-V and propidium iodide based flow cytometric analysis (reference value: 88.4%); format: functional; settings: read-out: Activity
[3] = tested on: MX1; test: Induction of apoptosis in human MX1 cells assessed as late apoptotic cells measured at 0.5 uM after 48 hrs by FITC-Annexin-V and propidium iodide based flow cytometric analysis (reference value: 5.24%); format: functional
[4] = tested on: MX1; test: Inhibition of PI3K/Akt signaling in human MX1 cells assessed as decrease in total Akt expression level incubated for 24 hrs by Western blotting analysis; format: cell-based
[5] = tested on: MX1; test: Induction of apoptosis in human MX1 cells assessed as necrotic cells measured at 2 uM after 48 hrs by FITC-Annexin-V and propidium iodide based flow cytometric analysis (reference value: 0.055 %); format: functional
[6] = tested on: MDA-MB-231; test: Induction of morphological changes in human MDA-MB-231 cells assessed as decrease in cell number at 0.5 to 2 uM measured after 24 hrs by bright field inverted microscopic analysis; format: functional, cell-based; settings: dose 0.5-2 µM
[7] = tested on: MDA-MB-231; test: Antitumor activity against human MDA-MB-231 cells xenografted in ig dosed BALBc mouse assessed as inhibition of tumor growth administered every 3 days for 21 days; format: functional, organism-based; settings: time 21.0 day
[8] = tested on: MDA-MB-231; test: Induction of apoptosis in human MDA-MB-231 cells assessed as viable cells measured at 2 uM after 48 hrs by FITC-Annexin-V and propidium iodide based flow cytometric analysis (reference value: 94.4% ); format: functional; settings: read-out: Activity
[9] = tested on: MDA-MB-231; test: Induction of apoptosis in human MDA-MB-231 cells assessed as necrotic cells measured at 1 uM after 48 hrs by FITC-Annexin-V and propidium iodide based flow cytometric analysis (reference value: 0.253 %); format: functional
[10] = tested on: MDA-MB-231; test: Antitumor activity against human MDA-MB-231 cells xenografted in BALBC mouse assessed as inhibition of tumor growth at 75 mg/kg, IG administered every 3 days for 21 days relative to control; format: functional; settings: MDA-MB-231, po, 504 h, time 21 day, read-out: TGI
[11] = tested on: MX1; test: Induction of morphological changes in human MX1 cells assessed as decrease in cell number at 0.5 to 2 uM measured after 24 hrs by bright field inverted microscopic analysis; format: functional, cell-based; settings: dose 0.5-2 µM
[12] = tested on: MX1; test: Induction of apoptosis in human MX1 cells assessed as late apoptotic cells measured at 2 uM after 48 hrs by FITC-Annexin-V and propidium iodide based flow cytometric analysis (reference value: 5.24%); format: functional
[13] = tested on: MX1; test: Inhibition of PI3K/Akt signaling in human MX1 cells assessed as decrease in phosphorylated S6 expression incubated for 24 hrs by Western blotting analysis; format: cell-based; settings: dose 0.5-5 µM
[14] = tested on: MDA-MB-231; test: Induction of apoptosis in human MDA-MB-231 cells assessed as increase in cleaved PARP expression at 0.5 to 2 uM by Western blotting analysis; format: functional, cell-based; settings: dose 0.5-2 µM
[15] = tested on: MX1; test: Induction of apoptosis in human MX1 cells assessed as necrotic cells measured at 1 uM after 48 hrs by FITC-Annexin-V and propidium iodide based flow cytometric analysis (reference value: 0.055 %); format: functional
[16] = tested on: MDA-MB-231; test: Induction of cell cycle arrest in human MDA-MB-231 cells assessed as accumulation of cells at G0/G1 phase incubated for 24 hrs by propidium iodide staining based FACS calibur flow cytometeric analysis; format: functional; settings: dose 0.5-2 µM
[17] = tested on: MDA-MB-231; test: Induction of apoptosis in human MDA-MB-231 cells assessed as necrotic cells measured at 0.5 uM after 48 hrs by FITC-Annexin-V and propidium iodide based flow cytometric analysis (reference value: 0.253 %); format: functional
[18] = tested on: MDA-MB-231; test: Induction of apoptosis in human MDA-MB-231 cells assessed as early apoptotic cells measured at 2 uM after 48 hrs by FITC-Annexin-V and propidium iodide based flow cytometric analysis (reference value: 2.71%); format: functional
[19] = tested on: MDA-MB-231; test: Induction of cell cycle arrest in human MDA-MB-231 cells assessed as increase in CDK6 expression at 0.5 to 2 uM by Western blotting analysis; format: functional, cell-based; settings: dose 0.5-2 µM, time 24.0 hrs
[20] = tested on: MX1; test: Induction of cell cycle arrest in human MX1 cells assessed as decrease in cyclin B1 expression at 0.5 to 2 uM by Western blotting analysis; format: functional, cell-based; settings: dose 0.5-2 µM, time 24.0 hrs
[21] = tested on: MDA-MB-231; test: Induction of apoptosis in human MDA-MB-231 cells assessed as early apoptotic cells measured at 1 uM after 48 hrs by FITC-Annexin-V and propidium iodide based flow cytometric analysis (reference value: 2.71%); format: functional
[22] = tested on: MDA-MB-231; test: Induction of cell cycle arrest in human MDA-MB-231 cells assessed as decrease in cyclin B1 expression at 0.5 to 2 uM by Western blotting analysis; format: functional, cell-based; settings: dose 0.5-2 µM, time 24.0 hrs
[23] = tested on: MDA-MB-231; test: Inhibition of PI3K/Akt signaling in human MDA-MB-231 cells assessed as decrease in total Akt expression level incubated for 24 hrs by Western blotting analysis; format: cell-based
[24] = tested on: MDA-MB-231; test: Induction of apoptosis in human MDA-MB-231 cells assessed as viable cells measured at 0.5 uM after 48 hrs by FITC-Annexin-V and propidium iodide based flow cytometric analysis (reference value: 94.4% ); format: functional; settings: read-out: Activity
[25] = tested on: HeLa; test: Antiproliferative activity against human HeLa cells assessed as reduction in cell viability after 96 hrs by MTT assay; format: functional, cell-based
[26] = tested on: MX1; test: Induction of morphological changes in human MX1 cells at 0.5 to 2 uM measured after 24 hrs by bright field inverted microscopic analysis; format: functional, cell-based; settings: dose 0.5-2 µM
[27] = tested on: MDA-MB-231; test: Induction of apoptosis in human MDA-MB-231 cells assessed as necrotic cells measured at 5 uM after 48 hrs by FITC-Annexin-V and propidium iodide based flow cytometric analysis (reference value: 0.253 %); format: functional
[28] = tested on: MX1; test: Induction of apoptosis in human MX1 cells assessed as viable cells measured at 2 uM after 48 hrs by FITC-Annexin-V and propidium iodide based flow cytometric analysis (reference value: 88.4%); format: functional; settings: read-out: Activity
[29] = tested on: MX1; test: Induction of apoptosis in human MX1 cells assessed as early apoptotic cells measured at 2 uM after 48 hrs by FITC-Annexin-V and propidium iodide based flow cytometric analysis (reference value: 6.30%); format: functional
[30] = tested on: MX1; test: Induction of cell cycle arrest in human MX1 cells assessed as accumulation of cells at G0/G1 phase at 0.5 to 2 uM measured after 24 hrs by propidium iodide staining based FACS calibur flow cytometeric analysis (reference value: 39.2%); format: functional; settings: dose 0.5-2 µM
[31] = tested on: MX1; test: Induction of apoptosis in human MX1 cells assessed as necrotic cells measured at 0.5 uM after 48 hrs by FITC-Annexin-V and propidium iodide based flow cytometric analysis (reference value: 0.055 %); format: functional
[32] = tested on: EMT6; test: Antitumor activity against mouse EMT6 cells allografted in BALBC mouse assessed as reduction in tumor progression at 150 mg/kg, IG administered every 3 days for 21 days; format: functional, organism-based; settings: time 21.0 day
[33] = tested on: MDA-MB-231; test: Induction of apoptosis in human MDA-MB-231 cells assessed as late apoptotic cells measured at 5 uM after 48 hrs by FITC-Annexin-V and propidium iodide based flow cytometric analysis (reference value: 2.68%); format: functional
[34] = tested on: MDA-MB-231; test: Induction of apoptosis in human MDA-MB-231 cells assessed as early apoptotic cells measured at 5 uM after 48 hrs by FITC-Annexin-V and propidium iodide based flow cytometric analysis (reference value: 2.71%); format: functional

CC1(C)C=Cc2c(c(/C=C/C(=O)NCCOc3no[n+]([O-])c3S(=O)(=O)c3ccccc3)cc3c2[nH]c2ccc(C(C)(C)C)cc23)O1
Activity [1]: Active
viability at 0.5 µM [2]: 54.8%
Activity [3]: 5.2%
inhibition [4]: inactive
Activity [5]: 0.043%
Activity [6]: Active
Activity [7]: Dose-Dependent Effect
viability at 2 µM [8]: 75.9%
Activity [9]: 0.209%
inhibition in vivo at 75 mg/kg [10]: 30%
Activity [11]: Active
Activity [12]: 2.83%
inhibition [13]: Dose-Dependent Effect
Activity [14]: Active
Activity [15]: 0.193%
Activity [16]: Dose-Dependent Effect
Activity [17]: 0.644%
Activity [18]: 10.8%
Activity [19]: Active
Activity [20]: Active
Activity [21]: 3.76%
Activity [22]: Active
inhibition [23]: inactive
viability at 0.5 µM [24]: 92.4%
IC50 [25]: 140 nM
Activity [26]: Active
Activity [27]: 0.867%
viability at 2 µM [28]: 11.9%
Activity [29]: 85.3%
Activity [30]: 43.1%
Activity [31]: 0.202%
Activity [32]: Active
Activity [33]: 20.8%
Activity [34]: 31.2%
